Structures can show the parent of a compound that is named as a salt.
Tests used:
[1] = system: A549 human line (non-small cell lung cancer); assay: Cytotoxicity test: cell growth inhibition of the A549 human line (ATP-lite luminescence); type: cell-based; conditions: A549 cells, 48 hrs incubation with compound, read-out: IC50 (concentration providing a 50% inhibition of cell proliferation)
Procedure: A cytotoxicity test is used. It measures the cell growth inhibition of the A549 human line (non-small cell lung cancer):
The A549 tumor cells are plated in a 96-well plate in RPMI 1640 medium free of phenol red (Seromed) to which is added 5% of fetal calf serum (100 μl/well, 1.25×10^4 cells/ml). After incubation for 24 hrs at 37° C. in an incubator at 5% CO2, the medium is replaced by that containing the compound to be tested, followed by incubation of the plates for another 48 hrs. Cell survival is assessed by measuring the luminescence after salting-out of the ATP from the medium using the cell lysis, luciferase and luciferine solutions included in the ATP-lite-M™ kit following the manufacturer's guidelines (Packard, Rungis, France). Each experimental condition was tested at least three times in sixplicate.

P388 murine leukemia = assay: Experimental P388 tumor model, survival of mice; type: in vivo; conditions: dose of 0.16 mg/kg
Excerpt: Experimental P388 tumor model. The model used is P388 murine leukemia (Tumor Models in Cancer Research. Teicher, B. A. ed., Humana Press Inc., Totowa, N.J. Pp. 23-40, 2002), which is maintained by sequential intraperitoneal transplantations in DBA/2 mice (DBA/2JIco mice, Charles River), as previously disclosed (Classic in vivo cancer models: Three examples of mouse models used in experimental therapeutics. Current Protocols in Pharmacology Unit 5.24: 5.24.1-5.24.16, 2001).
The experiment is carried out according to a previously disclosed protocol (Cancer Chemother. Pharmacol. 1998, 41, 437-447). This comprises implanting 10^6 P388 leukemia cells per mouse into C2DF1 hybrid mice (CD2F1/CrlBR, Charles River, St Aubin-les-Elbeuf, France) intravenously at day zero. After the animals have been randomized in treatment and control cages, the compounds to be tested are administered in one single injection by intraperitoneal route the day after the tumor transplantation, at day 1. The animals are then monitored every day, weighed twice per week, and any clinical reaction is recorded. The survival rate is the parameter used to assess antitumor activity. […] The T/Csurvival ratio is calculated for each dosage and the largest value obtained represents the maximum increase in survival rate achieved (maximum activity), which is defined as the optimum T/Csurvival ratio.

SMILES | melting point | also measured
COc1cc(C2c3cc4c(cc3[C@@H](NS(=O)(=O)CCNCCCNCCCCNCCCN)[C@H]3COC(=O)[C@H]23)OCO4)cc(OC)c1O (stereo partly drawn) (as salt: hydrochloride) | 191 °C | 
COc1cc(C2c3cc4c(cc3[C@@H](NC(=O)NCCCNCCCCNCCCN)[C@H]3COC(=O)[C@H]23)OCO4)cc(OC)c1O (stereo partly drawn) (as salt: hydrochloride) [Compound 48, 1-{3-[4-(3-Aminopropylamino)-butylamino]-propyl}-3-[9-(4-hydroxy-3,5-dimethoxyphenyl)-8-oxo-5,5a,6,8,8a,9-hexahydrofuro[3′,4′:6,7]-naphtho[2,3-d][1,3]dioxol-5-yl]-urea] | 166 °C | 
COc1cc(C2c3cc4c(cc3[C@@H](NC(=O)CCCNCCCNCCCCNCCCN)[C@H]3COC(=O)[C@H]23)OCO4)cc(OC)c1O (stereo partly drawn) [Compound 21, 4-{3-[4-(3-Aminopropylamino)-butylamino]-propylamino}-N-[9-(4-hydroxy-3,5-dimethoxyphenyl)-8-oxo-5,5a,6,8,8a,9-hexahydrofuro[3′,4′:6,7]-naphtho[2,3-d][1,3]dioxol-5-yl]-butyramide] |  | IC50 [1]: 1.7 nM; optimum T/Csurvival value (P388 murine leukemia; single intraperitoneal injection at day 1, 10^6 P388 cells intravenously at day 0, mice): 186%; increase in survival rate of the animals (P388 murine leukemia; single intraperitoneal injection at day 1, P388 leukemia mice): 86%
COc1cc(C2c3cc4c(cc3[C@@H](NC(=O)NCCCNCCCCNCCCN)[C@H]3COC(=O)[C@H]23)OCO4)cc(OC)c1O (stereo partly drawn) [Compound 48, 1-{3-[4-(3-Aminopropylamino)-butylamino]-propyl}-3-[9-(4-hydroxy-3,5-dimethoxyphenyl)-8-oxo-5,5a,6,8,8a,9-hexahydrofuro[3′,4′:6,7]-naphtho[2,3-d][1,3]dioxol-5-yl]-urea] |  | IC50 [1]: 12 nM

Now from value to compound, other results behind:

melting point | SMILES | also measured
213 °C | COc1cc(C2c3cc4c(cc3[C@@H](NC(=O)NCCCNCCCNCCCCNCCCN)[C@H]3COC(=O)[C@H]23)OCO4)cc(OC)c1O (stereo in doubt) | 
284 °C | COc1cc(C2c3cc4c(cc3[C@@H](NC(=O)CCCN)[C@H]3COC(=O)[C@H]23)OCO4)cc(OC)c1O (stereo in doubt) (as salt: hydrochloride) | 
169 °C | COc1cc(C2c3cc4c(cc3[C@@H](NC(=O)CCCN(C)C)[C@H]3COC(=O)[C@H]23)OCO4)cc(OC)c1O (stereo in doubt) (as salt: hydrochloride) | 

Source: patent US8492567B2, “(Poly)Aminoalkylaminoalkylamide, alkyl-urea, or alkyl-sulfonamide derivatives of epipodophyllotoxin, a process for preparing them, and application thereof in therapy as anticancer agents” (Pierre Fabre Medicament, priority 2008, dated 2013)
